Source: BindingDB's records for patent US20240199630 (CNIO, 2024)

Each molecule was assayed against Serine/threonine-protein kinase pim-1 (Homo sapiens, UniProt P11309).
Chain of Serine/threonine-protein kinase pim-1 (P11309 whole entry): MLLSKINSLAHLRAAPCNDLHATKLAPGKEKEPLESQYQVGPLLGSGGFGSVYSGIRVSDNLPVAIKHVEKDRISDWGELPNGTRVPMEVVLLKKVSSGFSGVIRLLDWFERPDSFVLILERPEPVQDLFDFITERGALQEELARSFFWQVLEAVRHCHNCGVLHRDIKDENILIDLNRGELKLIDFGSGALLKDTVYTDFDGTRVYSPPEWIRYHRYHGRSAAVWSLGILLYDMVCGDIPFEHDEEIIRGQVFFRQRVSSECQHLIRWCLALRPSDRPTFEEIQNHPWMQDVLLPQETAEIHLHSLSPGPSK

IC50 | SMILES
0.9 nM | CN(CC1CCNCC1)c1nn2c(-c3ccnc(C(F)(F)F)c3)cnc2c2c1N(C)CCO2 [US20240199630, Compound T4.1]
5.5 nM | CNCC1CCN(c2nn3c(-c4ccnc(C(F)(F)F)c4)cnc3c3c2N(C)CCO3)CC1 [US20240199630, Compound T4.2]
8.3 nM | CN1CCOc2c1c(N1CCC3(CCCNC3)CC1)nn1c(-c3ccnc(C(F)(F)F)c3)cnc21 [US20240199630, Compound T4.6]
1.1 nM | CN1CCOc2c1c(N1CCCC3(CCNCC3)C1)nn1c(-c3ccnc(C(F)(F)F)c3)cnc21 [US20240199630, Compound T4.7]
2 nM | CN1CCOc2c1c(NC1CC3(CCNCC3)C1)nn1c(-c3ccnc(C(F)(F)F)c3)cnc21 [US20240199630, Compound T4.8]
0.8 nM | CN1CCOc2c1c(N1CCC3(CC1)CC(N)C3)nn1c(-c3ccnc(C(F)(F)F)c3)cnc21 [US20240199630, Compound T4.9]
